Measurements: patent US20250320224A1 (DOMAIN THERAPEUTICS, priority 2022, published 2025)
Structures can show the parent of a compound that is named as a salt.

Biological target: T1, human PAR-2 (hPAR-2) receptor (Homo sapiens, UniProt P55085)
T1 construct: expressed in HEK-293 cells in an endogenous manner; endogenous in cells; host or cells: HEK-293
T1 sequence (P55085 26-397): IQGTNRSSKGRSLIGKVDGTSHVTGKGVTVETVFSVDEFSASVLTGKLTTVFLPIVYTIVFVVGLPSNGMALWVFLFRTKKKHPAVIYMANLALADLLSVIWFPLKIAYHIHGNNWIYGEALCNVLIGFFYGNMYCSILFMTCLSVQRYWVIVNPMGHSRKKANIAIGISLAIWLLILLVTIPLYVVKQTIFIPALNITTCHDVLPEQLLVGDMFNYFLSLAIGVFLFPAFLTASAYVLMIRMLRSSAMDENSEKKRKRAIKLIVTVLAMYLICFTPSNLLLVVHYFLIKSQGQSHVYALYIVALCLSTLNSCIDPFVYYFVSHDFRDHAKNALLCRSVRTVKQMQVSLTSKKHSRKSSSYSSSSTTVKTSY
Experiment: In vitro human PAR-2 functional antagonist activity using calcium assays
Format: cell-based
Conditions: hPAR-2 endogenously expressed in HEK-293 cells; stimulated by 2-Furoyl-LIGRLO-NH2 peptide; Fluo4AM intracellular calcium, FLIPR Tetra
Procedure, shortened: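 Antagonism was measured as reduced calcium response to 2-Furoyl-LIGRLO-NH2 (dosed at its 80%-of-maximum concentration), recorded for 5 min. This followed a 10 min compound pre-incubation on Fluo4AM-loaded HEK-293 cells expressing native hPAR-2. Signals were normalised to buffer and agonist-alone controls.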

Row | SMILES | IC50 [µM]
1 | CC1(C)CN(c2ccc(Cl)c(F)c2)c2ccc(C(=O)N3CCN(c4cnccc4C(=O)O)CC3(C)C)nc21 [Example 107, 3-(4-(1-(4-chloro-3-fluorophenyl)-3,3-dimethyl-2,3-dihydro-1H-pyrrolo[3,2-b]pyridine-5-carbonyl)-3,3-dimethylpiperazin-1-yl)isonicotinic acid] | 0.5 to 10
2 | CC1(C)CN(c2ccc(Cl)c(F)c2)c2ccc(C(=O)N3CCCC(Nc4ccc(C(=O)O)cn4)C3)nc21 (centres unmarked) [Example 109, 6-((1-(1-(4-chloro-3-fluorophenyl)-3,3-dimethyl-2,3-dihydro-1H-pyrrolo[3,2-b]pyridine-5-carbonyl)piperidin-3-yl)amino)nicotinic acid] | > 10
3 | CN(c1ccc(C(=O)O)cn1)C1CCCN(C(=O)c2ccc3c(n2)C(C)(C)CN3c2ccc(Cl)c(F)c2)C1 (centres unmarked) [Example 111, 6-((1-(1-(4-chloro-3-fluorophenyl)-3,3-dimethyl-2,3-dihydro-1H-pyrrolo[3,2-b]pyridine-5-carbonyl)piperidin-3-yl)(methyl)amino)nicotinic acid hydrochloride] | 0.5 to 10
4 | CC1(C)CN(c2ccc(Cl)c(F)c2)c2ccc(C(=O)N3CCC4(C3)C(=O)Nc3ccccc34)nc21 (centres unmarked) [Example 120, 1′-(1-(4-chloro-3-fluorophenyl)-3,3-dimethyl-2,3-dihydro-1H-pyrrolo[3,2-b]pyridine-5-carbonyl)spiro[indoline-3,3′-pyrrolidin]-2-one] | > 10
5 | CC1(C)CN(c2ccc(Cl)c(F)c2)c2ccc(C(=O)N3CCC4(CC3)CNC(=O)O4)nc21 [Example 121, 8-(1-(4-chloro-3-fluorophenyl)-3,3-dimethyl-2,3-dihydro-1H-pyrrolo[3,2-b]pyridine-5-carbonyl)-1-oxa-3,8-diazaspiro[4.5]decan-2-one] | 0.5 to 10
6 | CC1(C)CN(c2ccc(Cl)c(F)c2)c2ccc(C(=O)N3CC4(C3)CN(c3ccc(C(=O)O)cn3)C4)nc21 [Example 123, 6-(6-(1-(4-chloro-3-fluorophenyl)-3,3-dimethyl-2,3-dihydro-1H-pyrrolo[3,2-b]pyridine-5-carbonyl)-2,6-diazaspiro[3.3]heptan-2-yl)nicotinic acid] | > 10
7 | O=C(O)CC1CCN(C(=O)c2ccc3c(n2)C2(CCC2)CN3c2ccc(Cl)c(F)c2)CC1 [Example 125, 2-(1-(1′-(4-chloro-3-fluorophenyl)-1′,2′-dihydrospiro[cyclobutane-1,3′-pyrrolo[3,2-b]pyridine]-5′-carbonyl)piperidin-4-yl)acetic acid] | 0.5 to 10
8 | Cc1cc(N2CCN(C(=O)c3ccc(N4CC(C)(C)c5nc(C(=O)N6CCN(c7cc(C)c(C(=O)O)c(C)n7)CC6(C)C)ccc54)nc3)C(C)(C)C2)nc(C)c1C(=O)O [Example 133, 6-(4-(6-(5-(4-(5-carboxy-4,6-dimethylpyridin-2-yl)-2,2-dimethylpiperazine-1-carbonyl)-3,3-dimethyl-2,3-dihydro-1H-pyrrolo[3,2-b]pyridin-1-yl)nicotinoyl)-3,3-dimethylpiperazin-1-yl)-2,4-dimethylnicotinic acid] | > 10
9 | Cc1cc(N2CCN(C(=O)c3ccc4c(n3)C(C)(C)CN4c3ccc(Cl)cn3)C(C)(C)C2)nc(C)c1C(=O)O [Example 134, 6-(4-(1-(5-chloropyridin-2-yl)-3,3-dimethyl-2,3-dihydro-1H-pyrrolo[3,2-b]pyridine-5-carbonyl)-3,3-dimethylpiperazin-1-yl)-2,4-dimethylnicotinic acid] | < 0.5
10 | COC(=O)c1c(C)cc(N2CCN(C(=O)c3ccc4c(n3)C(C)(C)CN4c3ccccn3)C(C)(C)C2)nc1C [Example 135, methyl 6-(4-(3,3-dimethyl-1-(pyridin-2-yl)-2,3-dihydro-1H-pyrrolo[3,2-b]pyridine-5-carbonyl)-3,3-dimethylpiperazin-1-yl)-2,4-dimethylnicotinate] | 0.5 to 10
11 | Cc1ccc(N2CCN(C(=O)c3ccc4c(n3)C(C)(C)CN4c3ccc(Cl)c(F)c3)C(C)(C)C2)nc1C(=O)O [Example 140, 6-(4-(1-(4-chloro-3-fluorophenyl)-3,3-dimethyl-2,3-dihydro-1H-pyrrolo[3,2-b]pyridine-5-carbonyl)-3,3-dimethylpiperazin-1-yl)-3-methylpicolinic acid] | < 0.5
12 | COc1ncc(N2CCN(C(=O)c3ccc4c(n3)C(C)(C)CN4c3ccc(Cl)c(F)c3)C(C)(C)C2)cc1C(=O)O [Example 142, 5-(4-(1-(4-chloro-3-fluorophenyl)-3,3-dimethyl-2,3-dihydro-1H-pyrrolo[3,2-b]pyridine-5-carbonyl)-3,3-dimethylpiperazin-1-yl)-2-methoxynicotinic acid] | < 0.5
13 | CO[C@@H]1CCC2(C1)CN(c1ccc(Cl)c(F)c1)c1ccc(C(=O)N3CCN(c4cc(C)c(C(=O)O)c(C)n4)CC3(C)C)nc12 (stereo partly drawn) [Example 144, 6-(4-((3R)-1′-(4-chloro-3-fluorophenyl)-3-methoxy-1′,2′-dihydrospiro[cyclopentane-1,3′-pyrrolo[3,2-b]pyridine]-5′-carbonyl)-3,3-dimethylpiperazin-1-yl)-2,4-dimethylnicotinic acid] | < 0.5
14 | CO[C@H]1CCC2(C1)CN(c1ccc(Cl)c(F)c1)c1ccc(C(=O)N3CCN(c4cc(C)c(C(=O)O)c(C)n4)CC3(C)C)nc12 (stereo partly drawn) [Example 146, 6-(4-((3S)-1′-(4-chloro-3-fluorophenyl)-3-methoxy-1′,2′-dihydrospiro[cyclopentane-1,3′-pyrrolo[3,2-b]pyridine]-5′-carbonyl)-3,3-dimethylpiperazin-1-yl)-2,4-dimethylnicotinic acid] | < 0.5

Results, then the compound that gave them:

Row | IC50 [µM] | SMILES
15 | < 0.5 | CN1CCN(C(=O)c2csc(N3CCN(C(=O)c4ccc5c(n4)C(C)(C)CN5c4ccc(Cl)c(F)c4)C(C)(C)C3)n2)CC1 [Example 101, (1-(4-chloro-3-fluorophenyl)-3,3-dimethyl-2,3-dihydro-1H-pyrrolo[3,2-b]pyridin-5-yl)(2,2-dimethyl-4-(4-(4-methylpiperazine-1-carbonyl)thiazol-2-yl)piperazin-1-yl)methanone hydrochloride]
16 | < 0.5 | CCC1(CC)CN(c2ccc(Cl)c(F)c2)c2ccc(C(=O)N3CCN(c4cc(C)c(C(=O)O)c(C)n4)CC3(C)C)nc21 [Example 103, 6-(4-(1-(4-chloro-3-fluorophenyl)-3,3-diethyl-2,3-dihydro-1H-pyrrolo[3,2-b]pyridine-5-carbonyl)-3,3-dimethylpiperazin-1-yl)-2,4-dimethylnicotinic acid]
17 | < 0.5 | CC1(C)CN(c2ccc(Cl)c(F)c2)c2ccc(C(=O)N3CCN(c4cc(C(=O)O)ccn4)CC3(C)C)nc21 [Example 105, 2-(4-(1-(4-chloro-3-fluorophenyl)-3,3-dimethyl-2,3-dihydro-1H-pyrrolo[3,2-b]pyridine-5-carbonyl)-3,3-dimethylpiperazin-1-yl)isonicotinic acid]
18 | < 0.5 | Cc1cc(N2CCN(C(=O)c3ccc4c(n3)C3(CCCC3)CN4c3ccc(F)c(F)c3)C(C)(C)C2)nc(C)c1C(=O)O [Example 113, 6-(4-(1′-(3,4-difluorophenyl)-1′,2′-dihydrospiro[cyclopentane-1,3′-pyrrolo[3,2-b]pyridine]-5′-carbonyl)-3,3-dimethylpiperazin-1-yl)-2,4-dimethylnicotinic acid]
19 | < 0.5 | CC1(C)CN(c2ccc(Cl)c(F)c2)c2ccc(C(=O)N3CCN(c4cc(CC(=O)O)ccn4)CC3(C)C)nc21 [Example 115, 2-(2-(4-(1-(4-chloro-3-fluorophenyl)-3,3-dimethyl-2,3-dihydro-1H-pyrrolo[3,2-b]pyridine-5-carbonyl)-3,3-dimethylpiperazin-1-yl)pyridin-4-yl)acetic acid]
20 | < 0.5 | CC1(C)CN(c2ccc(Cl)c(F)c2)c2ccc(C(=O)N3CCN(c4ccc(CC(=O)O)nc4)CC3(C)C)nc21 [Example 117, 2-(5-(4-(1-(4-chloro-3-fluorophenyl)-3,3-dimethyl-2,3-dihydro-1H-pyrrolo[3,2-b]pyridine-5-carbonyl)-3,3-dimethylpiperazin-1-yl)pyridin-2-yl)acetic acid]
21 | < 0.5 | CC1(C)CN(c2ccc(CC(=O)O)cn2)CCN1C(=O)c1ccc2c(n1)C1(CCC1)CN2c1ccc(Cl)c(F)c1 [Example 119, 2-(6-(4-(1′-(4-chloro-3-fluorophenyl)-1′,2′-dihydrospiro[cyclobutane-1,3′-pyrrolo[3,2-b]pyridine]-5′-carbonyl)-3,3-dimethylpiperazin-1-yl)pyridin-3-yl)acetic acid]
22 | < 0.5 | CC1(C)C(=O)NCCN1C(=O)c1ccc2c(n1)C1(CCC1)CN2c1ccc(Cl)c(F)c1 [Example 126, 4-(1′-(4-chloro-3-fluorophenyl)-1′,2′-dihydrospiro[cyclobutane-1,3′-pyrrolo[3,2-b]pyridine]-5′-carbonyl)-3,3-dimethylpiperazin-2-one]
23 | < 0.5 | CC1(C)CN(c2ccc(CC(=O)O)cn2)CCN1C(=O)c1ccc2c(n1)C1(CN2c2ccc(Cl)c(F)c2)CC(F)(F)C1 [Example 128, 2-(6-(4-(1′-(4-chloro-3-fluorophenyl)-3,3-difluoro-1′,2′-dihydrospiro[cyclobutane-1,3′-pyrrolo[3,2-b]pyridine]-5′-carbonyl)-3,3-dimethylpiperazin-1-yl)pyridin-3-yl)acetic acid]
